Measured values from patent US8592443B2, “Use of 4 cyclopropylmethoxy-N-(3,5 dichloro-1 oxido-pyridin-4 yl)-5-(methoxy)pyridine-2-carboxamide for the treatment of spinal cord traumas” (Sanofi, priority 2007, dated 2013).

How the values were obtained:
ferret = test: Evaluation of emetic effects in the ferret; assay type: in vivo; conditions: observed up to 6 hours after administration; for Emetic effects (vomiting): ferrets
Description: The emetic capacity of 4-cyclopropylmethoxy-N-(3,5-dichloro-1-oxidopyridin-4-yl)-5-(methoxy)pyridine-2-carboxamide was evaluated in the ferret. Two groups of ferrets were used, the first being given the carrier (PEG 200) and the second being given 4-cyclopropyl-methoxy-N-(3,5-dichloro-1-oxidopyridin-4-yl)-5-(methoxy)pyridine-2-carboxamide in solution in the carrier (PEG 200), by oral gavage, at doses of 0.05 mg/kg and 0.1 mg/kg. The animals were observed continually for the 2 hours following administration and then every hour up to 6 hours after administration. The clinical signs (in particular retching and vomiting) were noted.
The emetic capacity of […] was evaluated in the ferret. Two groups of ferrets were used, the first receiving the carrier (PEG200) and the second receiving […] in solution in the carrier (PEG200), by oral gavage, at doses of 0.05 mg/kg and 0.1 mg/kg. The animals were observed continually for the 2 hours following administration and then every hour up to 6 hours after administration. The clinical signs were noted.

[1] = system: model of spinal trauma in the mouse; test: Beam balance test in a model of spinal trauma in the mouse; assay type: in vivo; conditions: for Travel time (% deficiency): 0.01 mg/kg po at +4 h then daily; for Travel time (% deficiency) / Travel time (% motor function deficiency): 100% = trauma + carrier; for Balance beam test result (time to reach the opposite end of the beam): 0.01 mg/kg orally 4 h after lesion then daily, OF1 mice; for Travel time (% motor function deficiency): 0.03 mg/kg po at +4 h and +6 h then daily
Description: The effects of 4-cyclopropylmethoxy-N-(3,5-dichloro-1-oxidopyridin-4-yl)-5-(methoxy)pyridine-2-carboxamide used according to the invention were evaluated in a model of spinal trauma in the mouse using the beam balance test (P. Barnéoud, NeuroReport 1997, 8, 2861-2865).
The Beam Balance test consists in placing the mouse at the end of a horizontal beam 30 cm long and 1.5 cm wide, raised 20 cm above the ground. The time required for the mouse to reach the opposite end of the beam is measured. The test is stopped after 12 seconds.
[…] female OF1 mice (Iffa Credo Lyon, France) weighing 12 to 14 g are placed in experimental cages (32×21×14 cm) provided with an endless supply of food and water, at the controlled temperature of 22±1° C.
The mice are subjected to a pre-learning phase which allows them to become familiar with the evaluation test and allows them to reach an optimal and identical level of performance.
The animals are subsequently divided up into three groups, and then a trauma is induced in a controlled manner in two of the three groups of mice before the beginning of the test phase.
This trauma consists of a lesion of the spinal cord located at the level of the thoracic vertebra Th8. The lesion is generated by 3 successive cycles of freezing-thawing by applying liquid nitrogen.
The functional consequences of the trauma are then measured at days 2, 7, 14 and 21 and also at day 28.
The following groups were formed: • Group 1 (no trauma) is composed of control animals which are not subjected to any trauma. • Group 2 (trauma alone) is composed of traumatized animals to which one dose per day of carrier (methyl-cellulose (MC) (0.6%) +tween-80 (0.5%) in water) is administered. • Group 3 (trauma+active ingredient 0.01 mg/kg at +4 hours) receives a solution containing 4-cyclopropylmethoxy-N-(3,5-dichloro-1-oxidopyridin-4-yl)-5-(methoxy)pyridine-2-carboxamide (0.01 mg/kg) in the carrier (MC (0.6%)+tween-80 (0.5%) in water), orally, 4 hours after the lesion, and then daily, orally, for 4 weeks after the trauma.
An experiment similar to that of Example 1 was carried out by administering ((4R)-4-[3-(cyclopentyloxy)-4-methoxyphenyl]pyrrolidine-2-one) to 34-week-old OF1 mice (Charles River, France) weighing 12 to 14 g, in the treatment of spinal cord traumas.
The mice were tested in the beam balance test, according to operating conditions identical to those described above.
The following groups were formed: • Group A (no trauma) is composed of control animals which are not subjected to any trauma. • Group B (trauma alone) is composed of traumatized animals to which one dose per day of carrier (2% PEG 200) is administered. • Group C (trauma+active ingredient 0.03 mg/kg at +4 hours) receives a solution containing (R)-(−)-Rolipram (0.03 mg/kg) in the carrier (2% PEG 200), orally, 4 hours and 6 hours after the lesion, and then daily, orally, for 4 weeks after the trauma.
The results obtained for each group of mice are expressed as percentage (%) deficiency of motor functions in the traumatized mice compared with the non-traumatized mice:
To do this, the difference in time taken between the group of mice tested to which (R)-(−)-Rolipram was administered (group C) and the group of non-traumatized mice (group A) is measured and expressed as a percentage relative to the difference in time taken between the traumatized mice to which one dose per day of carrier was administered (group B) and the time taken by the non-traumatized mice (group A). This ratio therefore gives the percentage deficiency in motor functions of the traumatized mice compared with the non-traumatized mice.
This calculation of the percentage deficiency of the mice tested is performed according to the following formula: % deficiency of group (c)=[(mean of the travel time of group C)−(mean of the travel time of group A)]/[(mean of the travel time of group B)−(mean of the travel time of group A)]

Question: For `COc1cnc(C(=O)Nc2c(Cl)c[n+]([O-])cc2Cl)cc1OCC1CC1` [4-cyclopropylmethoxy-N-(3,5-dichloro-1-oxidopyridin-4-yl)-5-(methoxy)pyridine-2-carboxamide], which “Emetic effects (retching and vomiting)” value (ferret; 0.1 mg/kg by oral gavage in PEG 200, 5 ferrets) is on record?
Answer: The value was “no retching or vomiting”.

Question: And the “Degree of motor function deficiency compared with (R)-(−)-Rolipram” value ([1]; 0.01 mg/kg po versus (R)-(−)-Rolipram 0.03 mg/kg po, traumatized mice)?
Answer: Its value is “less than that of the animals treated with (R)-(−)-Rolipram”.

Question: And the “Travel time (% deficiency)” value ([1]; D + 2, 0% = no trauma)?
Answer: Its value is 84%.

Question: And the “Balance beam test result (time to reach the opposite end of the beam)” value (“Balance beam test result” for short) ([1]; D + 2 after trauma, test stopped after 12 seconds)?
Answer: The value was 10.71 s.

Question: And the “Travel time (% deficiency)” value ([1]; D + 7, 0% = no trauma)?
Answer: Its value is 72%.

Question: What about the “Balance beam test result” value ([1]; D + 7 after trauma) of the same compound?
Answer: Its value is 8.67 s.

Question: And the “Travel time (% deficiency)” value ([1]; D + 14, 0% = no trauma)?
Answer: The value was 49%.

Question: What about the “Balance beam test result” value ([1]; D + 14 after trauma) of the same compound?
Answer: Its value is 6.35 s.

Question: What about the “Travel time (% deficiency)” value ([1]; D + 21, 0% = no trauma) of the same compound?
Answer: Its value is 60%.

Question: And the “Balance beam test result” value ([1]; D + 21 after trauma)?
Answer: Its value is 6.17 s.

Question: And the “Travel time (% deficiency)” value ([1]; D + 28, 0% = no trauma)?
Answer: The value was 44%.

Question: What about the “Balance beam test result” value ([1]; D + 28 after trauma) of the same compound?
Answer: Its value is 5.18 s.

Question: What about the “Travel time (% deficiency)” value ([1]; Mean of D + 2 to D + 28) of the same compound?
Answer: The value was 62%.

Question: What about the “Re-establishment of motor functions versus non-treated traumatized animals” value ([1]; traumatized mice, curative administration (group 3 vs group 2)) of the same compound?
Answer: The value was “better re-establishment in terms of motor functions”.

Question: Which results are given for `COc1ccc([C@@H]2CNC(=O)C2)cc1OC1CCCC1` [(R)-(−)-Rolipram, ((4R)-4-[3-(cyclopentyloxy)-4-methoxyphenyl]pyrrolidine-2-one), reference compound]?
Answer: Emetic effects (vomiting) (ferret; 0.05 mg/kg by oral gavage in PEG200): induces vomiting; Emetic effects (vomiting) (ferret; 0.1 mg/kg by oral gavage in PEG200): induces vomiting; Travel time (% motor function deficiency) ([1]; D + 2, 0% = no trauma): 110%; Travel time (% motor function deficiency) ([1]; D + 7, 0% = no trauma): 67%; Travel time (% motor function deficiency) ([1]; D + 14, 0% = no trauma): 48%; Travel time (% motor function deficiency) ([1]; D + 21, 0% = no trauma): 122%; Travel time (% motor function deficiency) ([1]; D + 28, 0% = no trauma): 108%; Travel time (% motor function deficiency) ([1]; Mean of D + 2 to D + 28): 91%
